Laboratory results as given in PMC9067936, “SHIP164 is a chorein motif lipid transfer protein that controls endosome–Golgi membrane traffic” (The Journal of Cell Biology, 2022).

Target: T1, 3XFLAG-SHIP164Δ901–1099 (Homo sapiens, UniProt A0JNW5, DEL901-1099)
T1 construct: gene BLTP3B; residues 901-1099 (predicted unstructured) deleted; N-terminal 3xFLAG tag kept; expressed in Expi293F; tail-to-tail dimer in vitro
Assay: native gel co-migration, NBD fluorescence calibrated with E-Syt2 standard curve
Type: binding
Details: 0.2 mM NBD-PE, 2 h on ice; labelled compound; stoichiometry estimate

T1 sequence (A0JNW5 with tags, fused parts or gaps DEL901-1099): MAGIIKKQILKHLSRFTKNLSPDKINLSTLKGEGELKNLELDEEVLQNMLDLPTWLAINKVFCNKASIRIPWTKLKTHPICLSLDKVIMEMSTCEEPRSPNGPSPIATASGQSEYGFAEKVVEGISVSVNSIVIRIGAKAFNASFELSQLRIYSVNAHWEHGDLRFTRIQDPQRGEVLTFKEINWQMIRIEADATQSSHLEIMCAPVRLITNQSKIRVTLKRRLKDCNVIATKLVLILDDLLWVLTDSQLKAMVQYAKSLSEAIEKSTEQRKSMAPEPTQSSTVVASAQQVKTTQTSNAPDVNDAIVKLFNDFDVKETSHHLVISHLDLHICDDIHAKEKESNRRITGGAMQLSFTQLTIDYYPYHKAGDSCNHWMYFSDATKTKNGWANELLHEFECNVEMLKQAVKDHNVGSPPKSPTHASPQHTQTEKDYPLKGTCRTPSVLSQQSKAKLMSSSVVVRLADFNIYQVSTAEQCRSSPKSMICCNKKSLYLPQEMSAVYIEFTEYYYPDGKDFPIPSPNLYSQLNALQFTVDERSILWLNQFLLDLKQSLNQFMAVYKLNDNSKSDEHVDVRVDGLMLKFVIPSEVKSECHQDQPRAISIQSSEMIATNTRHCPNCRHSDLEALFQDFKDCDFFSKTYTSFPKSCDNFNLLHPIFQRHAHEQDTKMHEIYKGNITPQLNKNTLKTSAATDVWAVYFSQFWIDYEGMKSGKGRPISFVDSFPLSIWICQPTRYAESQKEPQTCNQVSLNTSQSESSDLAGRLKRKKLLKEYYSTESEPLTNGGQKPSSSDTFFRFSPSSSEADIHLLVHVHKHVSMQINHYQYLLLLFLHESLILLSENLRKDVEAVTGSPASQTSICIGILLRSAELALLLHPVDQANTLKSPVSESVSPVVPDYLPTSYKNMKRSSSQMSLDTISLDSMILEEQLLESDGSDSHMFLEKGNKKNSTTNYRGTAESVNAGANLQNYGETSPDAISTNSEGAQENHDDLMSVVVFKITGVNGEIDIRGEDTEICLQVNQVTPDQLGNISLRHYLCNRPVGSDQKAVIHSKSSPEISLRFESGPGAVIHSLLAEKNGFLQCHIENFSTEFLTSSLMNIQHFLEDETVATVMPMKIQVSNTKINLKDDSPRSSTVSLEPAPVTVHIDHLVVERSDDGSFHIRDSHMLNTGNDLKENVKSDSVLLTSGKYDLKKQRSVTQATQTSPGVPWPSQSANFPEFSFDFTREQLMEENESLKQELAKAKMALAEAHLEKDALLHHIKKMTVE

lipids per SHIP164 molecule: ~ 8 lipids per protein molecule
SMILES: CCCCCCCC/C=C\CCCCCCCC(=O)OC[C@H](COP(=O)(O)OCCNc1ccc([N+](=O)[O-])c2nonc12)OC(=O)CCCCCCC/C=C\CCCCCCCC [NBD-PE]
